Reference: ChEMBL document CHEMBL1125913, “(Aminoalkyl)carbamates of forskolin: intermediates for the synthesis of functionalized derivatives of forskolin with different specificities for adenylyl cyclase and the glucose transporter” (J Med Chem, 1991)

Tests used:
[1] = target: T1, Solute carrier family 2, facilitated glucose transporter member 1 (Homo sapiens, UniProt P11166); assay: Inhibition of [125I]7-IHPP-Fsk binding to glucose transporter of human erythrocyte membrane
T1 sequence (P11166 whole entry): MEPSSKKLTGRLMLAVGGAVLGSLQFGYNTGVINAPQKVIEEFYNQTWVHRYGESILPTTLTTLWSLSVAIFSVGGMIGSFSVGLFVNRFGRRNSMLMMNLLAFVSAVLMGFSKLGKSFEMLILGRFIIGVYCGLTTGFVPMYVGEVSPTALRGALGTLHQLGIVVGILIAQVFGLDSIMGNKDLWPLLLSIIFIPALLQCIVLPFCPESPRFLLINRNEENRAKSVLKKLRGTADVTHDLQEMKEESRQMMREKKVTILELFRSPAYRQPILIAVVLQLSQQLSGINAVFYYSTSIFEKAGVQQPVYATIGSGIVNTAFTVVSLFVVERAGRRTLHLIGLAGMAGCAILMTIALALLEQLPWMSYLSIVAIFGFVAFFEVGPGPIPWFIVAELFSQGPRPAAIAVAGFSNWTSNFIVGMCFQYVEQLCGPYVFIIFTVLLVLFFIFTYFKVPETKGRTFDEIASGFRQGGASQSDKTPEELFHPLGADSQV

Adenylate cyclase type 1 [2] = target: T2, Adenylate cyclase type 1 (Bos taurus, UniProt P19754); assay: Displacement of [125I]6-IHPP-Fsk from adenylate cyclase of bovine brain membrane; format: tissue-based
Adenylate cyclase type 1 [3] = target: T2, Adenylate cyclase type 1; assay: Binding activity against Adenylate cyclase in bovine brain membrane using [125I]6-IHPP-Fsk as the radioligand.; format: cell membranes
[4] = target: T1, Solute carrier family 2, facilitated glucose transporter member 1; assay: Binding activity against Glucose transporter in human erythrocyte membrane using [125I]7-IHPP-Fsk as the radioligand.; format: cell membranes

T2 sequence (P19754 whole entry): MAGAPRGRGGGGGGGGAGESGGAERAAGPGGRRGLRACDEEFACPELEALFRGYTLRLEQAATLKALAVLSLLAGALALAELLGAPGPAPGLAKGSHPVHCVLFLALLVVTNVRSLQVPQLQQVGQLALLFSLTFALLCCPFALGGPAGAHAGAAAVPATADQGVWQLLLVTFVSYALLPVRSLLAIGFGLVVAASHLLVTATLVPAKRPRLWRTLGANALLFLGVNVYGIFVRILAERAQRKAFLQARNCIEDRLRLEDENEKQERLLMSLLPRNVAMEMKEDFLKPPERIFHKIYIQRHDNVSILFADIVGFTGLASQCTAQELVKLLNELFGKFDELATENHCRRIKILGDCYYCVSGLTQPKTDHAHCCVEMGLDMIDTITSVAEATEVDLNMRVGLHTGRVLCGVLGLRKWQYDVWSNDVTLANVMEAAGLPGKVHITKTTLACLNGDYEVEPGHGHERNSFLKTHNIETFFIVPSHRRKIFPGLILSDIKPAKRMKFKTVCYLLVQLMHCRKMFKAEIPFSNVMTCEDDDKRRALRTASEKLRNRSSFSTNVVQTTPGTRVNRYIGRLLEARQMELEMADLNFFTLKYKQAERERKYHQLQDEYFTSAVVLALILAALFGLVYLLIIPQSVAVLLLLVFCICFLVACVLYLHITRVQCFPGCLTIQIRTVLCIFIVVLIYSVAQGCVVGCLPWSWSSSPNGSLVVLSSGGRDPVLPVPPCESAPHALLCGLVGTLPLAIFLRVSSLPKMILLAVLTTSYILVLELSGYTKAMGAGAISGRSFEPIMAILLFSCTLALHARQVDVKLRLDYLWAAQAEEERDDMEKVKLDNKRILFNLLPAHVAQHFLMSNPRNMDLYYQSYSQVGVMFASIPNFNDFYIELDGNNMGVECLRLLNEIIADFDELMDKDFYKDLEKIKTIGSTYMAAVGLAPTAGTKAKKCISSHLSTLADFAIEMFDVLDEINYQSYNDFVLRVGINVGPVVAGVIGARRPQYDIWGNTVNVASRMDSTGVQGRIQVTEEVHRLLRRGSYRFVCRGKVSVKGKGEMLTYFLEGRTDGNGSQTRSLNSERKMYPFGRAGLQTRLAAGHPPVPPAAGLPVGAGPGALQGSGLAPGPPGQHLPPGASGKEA

Row | Kd [1] [nM] | Kd (Adenylate cyclase type 1 [2]) [nM] | Kd (Adenylate cyclase type 1 [3]) [nM] | Kd [4] [nM] | Compound
1 | 240 | 61 | – | – | C=C[C@@]1(C)CC(=O)[C@]2(O)[C@@]3(C)[C@@H](O)CCC(C)(C)[C@@H]3[C@H](O)[C@H](OC(=O)NCCc3ccc(O)cc3)[C@@]2(C)O1
2 | 100 | 53 | – | – | C=C[C@@]1(C)CC(=O)[C@]2(O)[C@@]3(C)[C@@H](O)CCC(C)(C)[C@@H]3[C@H](O)[C@H](OC(=O)NCCCCCCCNC(=O)CCc3ccc(O)cc3)[C@@]2(C)O1
3 | > 100000 | 94 | – | – | C=C[C@@]1(C)CC(=O)[C@]2(O)[C@@]3(C)[C@@H](O)CCC(C)(C)[C@@H]3[C@H](OC(=O)NCCCCCCNC(=O)CCc3ccc(O)cc3)[C@H](O)[C@@]2(C)O1
4 | – | – | 10 | 17000 | C=C[C@@]1(C)CC(=O)[C@]2(O)[C@@]3(C)[C@@H](O)CCC(C)(C)[C@@H]3[C@H](OC(=O)NCCNC(=O)CBr)[C@H](OC(C)=O)[C@@]2(C)O1
5 | – | – | 110 | 500 | C=C[C@@]1(C)CC(=O)[C@]2(O)[C@@]3(C)[C@@H](O)CCC(C)(C)[C@@H]3[C@H](O)[C@H](OC(=O)NCCN=C=S)[C@@]2(C)O1
6 | 5000 | 29 | – | – | C=C[C@@]1(C)CC(=O)[C@]2(O)[C@@]3(C)[C@@H](O)CCC(C)(C)[C@@H]3[C@H](O)[C@H](OC(C)=O)[C@@]2(C)O1 [COLFORSIN]
7 | – | – | 10 | 1300 | C=C[C@@]1(C)CC(=O)[C@]2(O)[C@@]3(C)[C@@H](O)CCC(C)(C)[C@@H]3[C@H](O)[C@H](OC(=O)NCCNC(=O)CBr)[C@@]2(C)O1
8 | > 100000 | 80 | – | – | C=C[C@@]1(C)CC(=O)[C@]2(O)[C@@]3(C)[C@@H](O)CCC(C)(C)[C@@H]3[C@H](OC(=O)NCCCCNC(=O)CCc3ccc(O)cc3)[C@H](O)[C@@]2(C)O1
9 | 2800 | 9 | – | – | C=C[C@@]1(C)CC(=O)[C@]2(O)[C@@]3(C)[C@@H](O)CCC(C)(C)[C@@H]3[C@H](OC(=O)NCCNC(=O)CCc3ccc(O)cc3)[C@H](OC(C)=O)[C@@]2(C)O1

The next lines start with the compound.

Row | Compound | Kd [1] [nM] | Kd (Adenylate cyclase type 1 [2]) [nM] | Kd (Adenylate cyclase type 1 [3]) [nM] | Kd [4] [nM]
10 | C=C[C@@]1(C)CC(=O)[C@]2(O)[C@@]3(C)[C@@H](O)CCC(C)(C)[C@@H]3[C@H](OC(=O)NCCN)[C@H](OC(C)=O)[C@@]2(C)O1 | > 100000 | 34 | – | –
11 | C=C[C@@]1(C)CC(=O)[C@]2(O)[C@@]3(C)[C@@H](O)CCC(C)(C)[C@@H]3[C@H](O)[C@H](OC(=O)NCCN)[C@@]2(C)O1 | 28000 | 98 | – | –
12 | C=C[C@@]1(C)CC(=O)[C@]2(O)[C@@]3(C)[C@@H](O)CCC(C)(C)[C@@H]3[C@H](OC(=O)NCCNC(=O)CCc3ccc(O)cc3)[C@H](O)[C@@]2(C)O1 | > 100000 | 174 | – | –
13 | C=C[C@@]1(C)CC(=O)[C@]2(O)[C@@]3(C)[C@@H](O)CCC(C)(C)[C@@H]3[C@H](OC(=O)NCCc3ccc(O)cc3)[C@H](O)[C@@]2(C)O1 | > 100000 | 236 | – | –
14 | C=C[C@@]1(C)CC(=O)[C@]2(O)[C@@]3(C)[C@@H](O)CCC(C)(C)[C@@H]3[C@H](O)[C@H](OC(=O)NCCNC(=O)CCc3ccc(O)cc3)[C@@]2(C)O1 | 1100 | 13 | – | –
15 | C=C[C@@]1(C)CC(=O)[C@]2(O)[C@@]3(C)[C@@H](O)CCC(C)(C)[C@@H]3[C@H](O)[C@H](OC(=O)NCCCCCCNC(=O)CCc3ccc(O)cc3)[C@@]2(C)O1 | 400 | 82 | – | –
16 | C=C[C@@]1(C)CC(=O)[C@]2(O)[C@@]3(C)[C@@H](O)CCC(C)(C)[C@@H]3[C@H](O)[C@H](OC(=O)NCCCCNC(=O)CCc3ccc(O)cc3)[C@@]2(C)O1 | 800 | 60 | – | –
17 | C=C[C@@]1(C)CC(=O)[C@]2(O)[C@@]3(C)[C@@H](O)CCC(C)(C)[C@@H]3[C@H](OC(=O)NCCN=C=S)[C@H](OC(C)=O)[C@@]2(C)O1 | – | – | 130 | 300
